Measurements from paper PMC6702965, “Inhibition of Porcine Viruses by Different Cell-Targeted Antiviral Drugs” (Frontiers in Microbiology, 2019).
Where two headings read alike, the source gives them in different places.

Key:
ASFV Ba71V [1] = type: cell-based, African swine fever virus
MTT cell viability assay [2] = settings: hamster, BHK cells
MTT cell viability assay [3] = settings: African green monkey, COS cells
ASFV = test system: ASFV; design: species or system African swine fever virus
ASFV Ba71V [4] = type: cell-based, African swine fever virus; remark: listed apart in the source
ASFV Ba71V [5] = test: microbe, parasite or virus in culture; type: cell-based, African swine fever virus; settings: for IC50: African swine fever virus
ASFV isolate E70 = test: microbe, parasite or virus in culture; type: cell-based; settings: African swine fever virus, COS, read-out: IC50 on virus yield
MTT cell viability assay [6] = settings: African green monkey, Vero cells
MTT cell viability assay [7] = settings: pig, IBRS-2 cells
FMDV [8] = test system: FMDV; design: species or system foot and mouth disease virus
FMDV C-S8 [9] = test: microbe, parasite or virus in culture; type: cell-based, foot and mouth disease virus
[10] = C57, mouse, in vivo
FMDV C-S8 [11] = type: cell-based, foot and mouth disease virus
FMDV C-S8 [12] = test system: FMDV C-S8; design: species or system C57 mice; settings: mouse, in vivo
VSV Indiana = test: microbe, parasite or virus in culture; type: cell-based, vesicular stomatitis virus
FMDV C-S8 [13] = type: cell-based, foot and mouth disease virus; remark: listed apart in the source
SVDV SP93 = test: microbe, parasite or virus in culture; type: cell-based, swine vesicular disease virus
FMDV O-UK = test: microbe, parasite or virus in culture; type: cell-based, foot and mouth disease virus
FMDV C-S8 [14] = type: cell-based, foot and mouth disease virus; remark: listed apart in the source
ASFV Ba71V [15] = settings: cited from earlier work
FMDV C-S8 [16] = settings: mouse, in vivo
VSV = settings: cited from earlier work
FMDV [17] = settings: cited from earlier work
SVDV = settings: ref Vazquez-Calvo et al., 2011; cited from earlier work
[18] = read-out: IC50 on ASFV production

Structure (SMILES): C/C=C/C/C=C/CCC(=O)[C@H]1O[C@H]1C(N)=O [CRL, cerulenin]
- Expression of early virus protein p32 (ASFV Ba71V [1]): very low expression
- Expression of late ASFV proteins (p17, p12) (ASFV Ba71V [1]): No late ASFV proteins
- CC50 at 24 h (MTT cell viability assay [2]): 60 µM
- CC50 at 24 h (MTT cell viability assay [3]): 60 µM
- Direct virucidal effect (virotoxicity) (ASFV): no direct toxicity
- Effect of time of addition on virus yield (ASFV Ba71V [4]): recovery of virus productivity was observed when CRL was added as early as 0 h after infection
- IC50 (ASFV Ba71V [5]; [18]): 9 µM
- IC50 (ASFV isolate E70): 3 µM
- CC50 at 24 h (MTT cell viability assay [6]): 45 µM
- CC50 at 24 h (MTT cell viability assay [7]): 40 µM
- Direct virucidal effect (virotoxicity) (FMDV [8]): no direct toxicity

Structure (SMILES): O=C(O)c1cc(O)c(O)c(O)c1 [G, gallic acid]
- Inhibition of FMDV growth (FMDV C-S8 [9]): Neither G nor PG inhibited FMDV growth

Structure (SMILES): CCCCCCCCCCCCOC(=O)c1cc(O)c(O)c(O)c1 [LG, lauryl gallate]
- CC50 at 24 h (MTT cell viability assay [2]): 75 µM
- Non-toxic working concentrations [10]: up to 200 mg/kg
- Expression of structural (VP1) and non-structural (3C) FMDV proteins (FMDV C-S8 [11]): significantly reduced
- CC50 at 24 h (MTT cell viability assay [3]): 33 µM
- Direct virucidal effect (virotoxicity) (ASFV): no direct toxicity
- Viral RNA copies (VRC) in blood, spleen, lung, heart and thymus (FMDV C-S8 [12]): significant reduction
- Virus yield reduction (ASFV Ba71V [5]): about 3 log.u.
- IC50 (ASFV Ba71V [5]; COS, 24 h, read-out: IC50 on virus yield): 0.4 µM
- IC50 (ASFV Ba71V [5]; Vero, 24 h, read-out: IC50 on virus yield): 1 µM
- Reduction of virus productivity (VSV Indiana): 2 log.u.
- IC50 (VSV Indiana; Vesicular stomatitis virus, BHK-21, read-out: IC50 on virus yield): 0.9 µM
- Decrease in virus production (FMDV C-S8 [9]): at least 1 log.u.
- Reduction of virus yield (FMDV C-S8 [9]): up to 2 log.u
- IC50 (FMDV C-S8 [9]; Foot-and-mouth disease virus, BHK-21, read-out: IC50 on virus yield): 0.2 to 2.5 µM
- Time of LG addition up to which virus productivity was blocked (FMDV C-S8 [13]): up to 7 h.p.i.
- Reduction of virus productivity (SVDV SP93): 1 log.u.
- IC50 (SVDV SP93; Enterovirus B, read-out: IC50 on virus yield): 1.7 µM
- IC50 (ASFV isolate E70): 2 µM
- Decrease in virus production (FMDV O-UK): at least 1 log.u.
- IC50 (FMDV O-UK; Foot-and-mouth disease virus, read-out: IC50 on virus yield): 0.7 µM
- CC50 at 24 h (MTT cell viability assay [6]): 45 µM
- Amount of intracellular FMDV RNA (FMDV C-S8 [14]): not affected
- Extracellular virus (RNA) (FMDV C-S8 [14]): significantly reduced
- Positive strand viral RNA synthesis (FMDV C-S8 [14]): transiently inhibited
- CC50 at 24 h (MTT cell viability assay [7]): 30 µM
- Time of LG addition up to which virus production was inhibited (ASFV Ba71V [15]): up to 5 h.p.i.
- Body weight (FMDV C-S8 [16]): lower weights
- Protection against FMDV challenge (FMDV C-S8 [16]): no protection
- Survival rate (FMDV C-S8 [16]): 70%
- Direct virucidal effect (virotoxicity) (FMDV [8]): no direct toxicity

Structure (SMILES): CCCCCCCCOC(=O)c1cc(O)c(O)c(O)c1 [OG, octyl gallate]
- Effect on ASFV infection (ASFV Ba71V [5]): inhibitory effect
- Reduction of virus yields (FMDV C-S8 [9]): 2 log.u.

Structure (SMILES): CCCOC(=O)c1cc(O)c(O)c(O)c1 [PG, propyl gallate]
- Inhibition of FMDV growth (FMDV C-S8 [9]): Neither G nor PG inhibited FMDV growth

Structure (SMILES): CCCC(CCC)C(=O)O [VPA, valproic acid]
- Expression of early virus protein p32 (ASFV Ba71V [1]): very low expression
- Expression of late ASFV proteins (p17, p12) (ASFV Ba71V [1]): No late ASFV proteins
- Susceptibility of infection to the drug (VSV): susceptible
- Susceptibility of infection to the drug (FMDV [17]): not affected
- Susceptibility of infection to the drug (SVDV): not affected
- Direct virucidal effect (virotoxicity) (ASFV): no direct toxicity
- Effect of time of addition on virus yield (ASFV Ba71V [4]): gradual recovery of virus yields
- IC50 (ASFV Ba71V [5]; [18]): 2500 to 3000 µM
- IC50 (ASFV isolate E70): 2500 µM
- CC50 at 24 h (MTT cell viability assay [6]): 50000 µM
- Direct virucidal effect (virotoxicity) (FMDV [8]): no direct toxicity
